Active and inactive are the calls of the source. No cut-off for these calls is given here.

One compound from ChEMBL document CHEMBL4819083, “Synthesis of pyranochalcone derivatives and their inhibitory effect on NF-κB activation” (Bioorg Med Chem Lett, 2021) can be followed below.

The test system of series [1] is RAW264.7. Put plainly: Inhibition of NF-kappaB in mouse RAW264.7 cells assessed as reduction in LPS-induced p65 phosphorylation pre-treated for 2 hrs followed by LPS stimulation and measured after 6 hrs by Western blot analysis. It counts as cell-based.
The subject of series [2] is RAW264.7. Put plainly: Inhibition of MAPK signalling activation in mouse RAW264.7 cells assessed as reduction in LPS-induced p38 phosphorylation pre-treated for 2 hrs followed by LPS stimulation and measured after 6 hrs by Western blot analysis. It counts as cell-based.
The subject of series [3] is RAW264.7. Put plainly: Inhibition of LPS-induced iNOS expression in mouse RAW264.7 cells at 2 to 20 uM preincubated for 2 hr followed by LPS stimulation and measured after 6 hrs by Western blot analysis. It counts as functional, cell-based. Conditions: dose 2-20 µM.
Series [4] has as its system RAW264.7. The series can be described thus: Cytotoxicity against mouse RAW264.7 cells at > 50 uM. The series is classed as cell-based.
For series [5], the system named is RAW264.7. The series can be described thus: Inhibition of LPS-induced pro IL-1beta expression in mouse RAW264.7 cells at 2 to 20 uM preincubated for 2 hr followed by LPS stimulation and measured after 6 hrs by Western blot analysis. It counts as functional, cell-based. The note with it: dose 2-20 µM.
The target of series [6] is T1, Inhibitor of nuclear factor kappa-B kinase subunit alpha (Mus musculus) (UniProt Q60680).
T1 sequence (whole entry): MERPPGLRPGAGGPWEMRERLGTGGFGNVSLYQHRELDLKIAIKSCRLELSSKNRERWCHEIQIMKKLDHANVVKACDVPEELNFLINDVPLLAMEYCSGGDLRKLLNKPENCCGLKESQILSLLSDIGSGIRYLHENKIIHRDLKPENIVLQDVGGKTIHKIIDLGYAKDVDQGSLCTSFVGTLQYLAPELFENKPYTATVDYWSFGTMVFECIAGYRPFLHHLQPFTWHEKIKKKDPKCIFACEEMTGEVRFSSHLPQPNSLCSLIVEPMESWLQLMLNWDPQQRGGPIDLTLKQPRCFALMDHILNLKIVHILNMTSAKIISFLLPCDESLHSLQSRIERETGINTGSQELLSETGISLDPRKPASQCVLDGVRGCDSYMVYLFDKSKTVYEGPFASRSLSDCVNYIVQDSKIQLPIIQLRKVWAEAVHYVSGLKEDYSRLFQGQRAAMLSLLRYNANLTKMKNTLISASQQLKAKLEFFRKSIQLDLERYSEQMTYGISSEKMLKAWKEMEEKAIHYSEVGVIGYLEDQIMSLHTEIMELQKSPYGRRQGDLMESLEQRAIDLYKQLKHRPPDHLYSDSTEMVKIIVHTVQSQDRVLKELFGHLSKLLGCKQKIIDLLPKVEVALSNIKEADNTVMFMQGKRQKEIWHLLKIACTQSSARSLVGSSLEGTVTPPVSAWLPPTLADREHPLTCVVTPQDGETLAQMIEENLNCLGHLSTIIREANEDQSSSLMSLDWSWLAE
The series can be described thus: Inhibition of IKKalpha in mouse RAW264.7 cells assessed as inhibition of LPS-induced IKK-alpha phosphorylation level pre-treated for 2 hrs followed by LPS stimulation and measured after 6 hrs by Western blot analysis. The series is classed as cell-based.

Series [7] deals with BMDM. The series can be described thus: Inhibition of LPS-induced IL-1beta secretion in mouse BMDM cells at 2 to 20 uM preincubated for 2 hr followed by LPS stimulation and measured after 4 hrs. It counts as functional, cell-based. Conditions: dose 2-20 µM.
The subject of series [8] is RAW264.7. Put plainly: Inhibition of LPS-induced NO expression in mouse RAW264.7 cells at 2 to 20 uM preincubated for 2 hr followed by LPS stimulation and measured after 24 hrs. The series is classed as functional, cell-based. The note with it: dose 2-20 µM.
In series [9] the test system is RAW264.7. The series can be described thus: Inhibition of LPS-induced IL-1beta mRNA expression in mouse RAW264.7 cells at 2 to 20 uM preincubated for 2 hr followed by LPS stimulation and measured after 6 hrs by qRT-PCR. The series is classed as functional, cell-based. The note with it: dose 2-20 µM.
In series [10] the test system is BMDM. The series can be described thus: Inhibition of LPS-induced IL-1beta mRNA expression in mouse BMDM cells at 5 to 10 uM preincubated for 2 hr followed by LPS stimulation and measured after 6 hrs by qRT-PCR. The series is classed as functional, cell-based. The note with it: dose 5-10 µM.

Consider `C=CC(=O)Oc1ccc(/C=C/C(=O)c2c(OC)cc3c(c2OC(=O)C=C)CCC(C)(C)O3)cc1`, for which the inhibition entry (in the series with RAW264.7 [1]; in the series with RAW264.7 [2]; with RAW264.7 [3]; in the series on RAW264.7 [5]; in series [6]; in the series on BMDM [7]) was “Active” each time. For the same compound, the inhibition result in the series with RAW264.7 [8], in the series with RAW264.7 [9] and in the series on BMDM [10] was “Active” each time. The Activity result with RAW264.7 [4] is reported as “Non-Toxic”.
